Where two headings read alike, the source gives them in different places. Oligonucleotides are written 5' to 3', each unit as a sugar letter and its base; * is a phosphorothioate linkage, no mark a phosphodiester; rarer units and linkages stand in square brackets, end groups in braces. Plain capitals give the bases only. d = 2'-deoxy (DNA); r = 2'-OH (RNA); f = 2'-fluoro
Experiments:
[1] = tested on: rabbit vWF A1 domain (SEQ ID NO 6); assay: dot blot KD determination, rabbit vWF A1 domain; format: binding
Chain of rabbit vWF A1 domain (SEQ ID NO 6) (as listed by the source): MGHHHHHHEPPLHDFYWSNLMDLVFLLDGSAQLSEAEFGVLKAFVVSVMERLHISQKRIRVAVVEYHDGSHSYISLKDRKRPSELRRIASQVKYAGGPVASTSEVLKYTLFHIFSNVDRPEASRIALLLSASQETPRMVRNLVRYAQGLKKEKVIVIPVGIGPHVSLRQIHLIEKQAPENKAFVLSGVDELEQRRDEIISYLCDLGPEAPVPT
Method: A 12 point protein titration was used in the dot blot assay (300 nM, 100 nM, 30 nM, 10 nM, 3 nM, 1 nM, 300 pM, 100 pM, 30 pM, 10 pM, 3 pM, 0 pM) in 1×DPBS plus 0.1 mg/mL BSA at room temperature for 30 minutes.

[2] = molecular target: T1, human vWF A1 domain (SEQ ID NO 5) (Homo sapiens, UniProt P04275, T1381A); assay: dot blot KD determination, human vWF A1 domain
T1 sequence (P04275 with tags, fused parts or gaps T1381A): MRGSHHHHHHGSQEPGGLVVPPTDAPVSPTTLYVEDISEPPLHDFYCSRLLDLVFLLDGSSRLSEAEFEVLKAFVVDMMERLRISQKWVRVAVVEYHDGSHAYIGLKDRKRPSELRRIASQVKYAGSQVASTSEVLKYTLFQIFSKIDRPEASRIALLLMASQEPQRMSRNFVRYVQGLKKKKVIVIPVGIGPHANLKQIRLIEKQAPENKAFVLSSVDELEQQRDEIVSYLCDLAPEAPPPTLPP

[3] = tested on: full length human vWF binding to lyophilized platelets; assay: Full length human von Willebrand Factor platelet binding assay (FACS); format: cell-based; settings: for IC50 / Inhibition of full length hVWF binding in FACS assay, IC50 range: 5 nM full length human vWF, lyophilized platelets, botrocetin; for Inhibition of full length hVWF binding in FACS assay, IC50 range: both bounds in nM
Summary of the method: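 Aptamer titrations (0.1–1000 nM) pre-incubated with 5 nM full-length human vWF, then added to lyophilized platelets plus botrocetin for 15 min at 37 °C in PBS/0.5% BSA. Bound vWF detected by anti-vWF then FITC secondary antibody via flow cytometry MFI; % inhibition versus no-aptamer binding fitted for IC50.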

[4] = tested on: botrocetin induced platelet aggregation; assay: Inhibition of botrocetin induced platelet aggregation (BIPA) in human PRP; format: cell-based; settings: for ≦200 nM aptamer gives >90% blocking in BIPA at 6 minutes: botrocetin induced platelet aggregation
Method: In platelet rich plasma isolated from fresh human blood, botrocetin induces platelet aggregation via vWF. Platelet aggregate formation can be measured optically as an increase in % light transmittance on a Chronolog Model 490-4D Aggregometer because aggregation of platelets clarifies the plasma. Aptamers of the invention were analyzed for their ability to inhibit botrocetin induced platelet aggregation (“BIPA”) in human blood. An aptamer of the invention was considered to be active if it could prevent aggregate formation for six minutes post botrocetin addition.
In order to determine the activity of aptamers on live human platelets, BIPA assays were done using freshly prepared platelet rich plasma. Blood was obtained from healthy human donors who had not taken NSAIDS for at least five days. […] Collected blood was pooled into 15 mL conical tubes and was spun at 200 g for 20 minutes. The turbid, yellow layer of platelet rich plasma (“PRP”) was withdrawn from the tubes, pooled, and set aside at room temperature. The remaining blood was spun at 2500 g for ten minutes. The clarified layer of plasma, known as platelet poor plasma (“PPP”), was withdrawn and set aside at room temperature. PRP was aliquoted into cuvettes containing stir bars at a volume of 470 uL. A sample of 500 uL of PPP was aliquoted into a cuvette and placed in the PPP reference cell of the platelet aggregometer. Samples of PRP were prewarmed at 37 degrees C. in the platelet aggregometer for 3-5 minutes before being used in BIPA assays. First, the concentration of botrocetin needed to induce platelet aggregation for each individual donor was determined by titration. This concentration of botrocetin was used for the remainder of the experiment. Next, aptamer was assayed by adding titrations of aptamer (zero, 1 nM to 1000 nM) to prewarmed PRP for one minute, followed by addition of botrocetin. With platelet aggregation, an increase in amplitude of light transmission is seen (FIG. 8). The concentration at which platelet aggregation is blocked at 90% or greater after 6 minutes is reported in the final column of Table 26.

[5] = tested on: rabbit vWF domain A1 binding to lyophilized platelets; assay: Rabbit von Willebrand Factor domain A1 platelet binding assay (FACS); format: cell-based; settings: for IC50: 4 nM rabbit A1 vWF, lyophilized platelets, botrocetin
Chain of rabbit vWF domain A1 binding to lyophilized platelets (as listed by the source): as the sequence (as listed by the source) above
Method: Botrocetin induces the binding of the A1 domain of vWF to platelets, as well as the full length protein. It was determined by the inventors that 6-Histidine-tagged rabbit A1 domain vWF purified protein could be induced to bind to human lyophilized platelets with botrocetin. Rabbit A1 binding to platelets is measured with an anti-poly-His antibody followed by incubation with a phycoerythrin conjugated secondary antibody. The degree of binding can be quantified by flow cytometric analysis. The ability of aptamers to block the binding of rabbit A1 to human fixed platelets was correlated with decreased fluorescence signal.
The ability of aptamers of the invention to block rabbit vWF domain A1 binding to lyophilized platelets was also assessed by flow cytometric analysis. Titrations of aptamers (zero, 0.1 nM to 1000 nM) were preincubated briefly with 4 nM of rabbit A1 vWF in FACS buffer (PBS plus 0.5% bovine serum albumin) at room temperature in a volume of 50 uL. Another 50 uL containing 5 uL of lyophilized platelets plus 1 uL of 0.1 U/uL of botrocetin in FACS buffer was added to aptamer/vWF. This reaction was allowed to proceed for 15 minutes at 37 degrees C. after which 200 uL of FACS buffer was added. Platelets were collected by a 6 minute spin at 1470 RCF and the supernatant was discarded. The pellets were resuspended in 100 uL of FACS buffer containing a 1:200 dilution of anti-Penta-HIS-biotin conjugate antibody and were incubated at room temperature for 30 minutes. After the dilution with 200 uL of FACS buffer, the platelets were spun at 1470 RCF for 6 minutes, and the supernatant was discarded. The pellets were resuspended in a 1:100 solution of anti-IgG-PE antibody and were incubated in the dark for 30 minutes at room temperature. The entire 100 uL was diluted into 200 uL of FACS buffer and analyzed immediately by flow cytometric analysis in the FACSCAN. Contaminating debris was eliminated from the analysis by drawing a gate around the population of single and aggregated platelets and collecting data from 10000 events. Median fluorescent intensity (“MedFI”) readings (which are generally equivalent to the MFI readings, described in Example 3a above, for comparative purposes) were quantified for each sample analyzed by flow cytometry. Background MedFI was subtracted from all data points. Percent inhibition was reported by calculating the percent value of binding of […] to platelets in the presence of aptamer at a given concentration relative to binding in the absence of any aptamer (see FIG. 7). IC50 values were determined by fitting the percent inhibition of vWF binding to platelets as a function of aptamer concentration to the equation: % inhibition=% inhibitionmax/(1+IC50/aptamer conc.)

[6] = tested on: full length human vWF (SEQ ID NO 7); assay: dot blot KD determination and extent of binding, full length human vWF; settings: for Kd: read-out: Full length human vWF KD;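 for all read-outs here: dot blot binding of aptamers to full length human vWF across a protein titration, incubated 30 minutes at room temperature in 1x DPBS with BSA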
[7] = tested on: rabbit vWF A1 domain (SEQ ID NO 6); assay: 3-point dot blot screen, rabbit vWF A1 domain; format: binding; settings: for Screen Rabbit/No Protein: 3-point dot blot screen, 20 nM rabbit vWF A1 domain, ratio of fraction of aptamer bound with target protein to fraction bound without protein
Summary of the method: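 Rabbit vWF A1 domain binding was screened by dot blot using three conditions: no target protein, human vWF, and rabbit vWF A1 domain at 100 nM (20 nM in the screen run twice). Radiolabeled aptamer bound to nitrocellulose was quantified, and results are expressed as the ratio of bound fraction with protein to bound fraction without protein.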

[8] = tested on: full length human vWF; assay: 3-point dot blot screen, full length human vWF; format: binding; settings: 20 nM full length human vWF, ratio of fraction of aptamer bound with target protein to fraction bound without protein
Summary of the method: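 Unique aptamer clones tested twice by nitrocellulose dot blot with no protein, 20 nM full-length human vWF or 20 nM rabbit vWF A1 domain. Value is fraction of aptamer bound with target divided by fraction bound without protein.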

[9] = molecular target: T1, human vWF A1 domain (SEQ ID NO 5); assay: 3-point dot blot screen, human vWF A1 domain; format: binding; settings: rRfY aptamers; 100 nM human vWF A1 domain; ratio of fraction bound with target to fraction bound without target
Summary of the method: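 Values are ratios of aptamer fraction retained on nitrocellulose with 100 nM vWF A1 domain (human or rabbit) versus a no-protein control. Unique clones from rounds 9 and 12 pools were transcribed, desalted and 5'-32P labeled before this three-point dot blot screen.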

[10] = read-out: Inhibition of full length hVWF binding in FACS assay, Average IC50
[11] = read-out: Inhibition of rabbit VWF A1 domain binding in FACS assay, Average IC50
[12] = rRdY minimers, 8 point titration 0-300 nM
[13] = DNA 2 minimers, 9 point protein titration
[14] = read-out: human A1 KD, rRfY aptamers, 8 point titration of human vWF A1 domain
[15] = both bounds in nM, read-out: Inhibition of rabbit VWF A1 domain binding in FACS assay, IC50 range

CCAGCGGAATGAGAATGCTGATGGATTGCTCAGGTCTGCTGG (DNA, backbone not given here) [SEQ ID NO 204]
Rabbit vWF A1 domain KD ([1]; DNA 1 minimers): No binding | Human vWF A1 domain KD ([2]; DNA 1 minimers, competition dot blot, 10 nM protein): No binding

GGACCACCCUCGCAACGAGAGUUGUGCCGCUGGUCC (rGrGrAfCfCrAfCfCfCfUfCrGfCrArAfCrGrArGrArGfUfUrGfUrGfCfCrGfCfUrGrGfUfCfC) [SEQ ID NO 174, minimized rRfY aptamer]
IC50 [3, 10]: 6600 pM | ≦200 nM aptamer gives >90% blocking in BIPA at 6 minutes [4]: yes | IC50 [5, 11]: 6.8 nM

GGAGCCACACGACATTGGCGCGAGAGCGCATGGCTCC (chemistry not given here) [SEQ ID NO 201, minimized rRdY aptamer]
IC50 [3, 10]: 150000 pM | ≦200 nM aptamer gives >90% blocking in BIPA at 6 minutes [4]: no activity

GGCCACACGACATTGGCGGGCGAGAGCCACGCATGGCC (rGrGdCdCrAdCrAdCrGrAdCrAdTdTrGrGdCrGrGrGdCrGrArGrArGdCdCrAdCrGdCrAdTrGrGdCdC) [SEQ ID NO 198, minimized rRdY aptamer]
IC50 [3, 10]: 20600 pM | IC50 [5, 11]: 12.6 nM | Kd [1, 12]: 0.011 ± 0.002 µM | Kd ([2]; read-out: Human vWF A1 domain KD, rRdY minimers, 8 point titration 0-300 nM): 0.005 ± 0.002 µM | Kd [6, 12]: 0.003 ± 0.0006 µM

GGCGTGCAGTGCC-[PEG]-GGCCGTGCGGTGCCTCCGTCACGCC-3T (DNA GGCGTGCAGTGCCGGCCGTGCGGTGCCTCCGTCACGCCT; chemistry not fully specified) [ARC1029, minimized DNA aptamer]
IC50 [3, 10]: 609 pM | IC50 ([3]; units in the cell: lower bound pM, upper bound nM, read-out: Inhibition of full length hVWF binding in FACS assay, IC50 range): 333 to 1100 pM | inhibition of binding of human vWF to lyophilized human platelets ([3]; in words, FACS, FIG. 7): inhibits binding | ≦200 nM aptamer gives >90% blocking in BIPA at 6 minutes [4]: yes | inhibition of botrocetin induced platelet aggregation ([4]; in words, human PRP): inhibiting botrocetin induced platelet aggregation | IC50 [5, 11]: 0.754 nM | inhibition of binding of rabbit vWF A1 domain to lyophilized human platelets ([5]; in words, FACS, FIG. 7): inhibits binding | Kd [1, 13]: 0.0065 ± 0.0015 µM | Kd [6, 13]: 0.0014 ± 0.0002 µM

GGCGTGCAGTGCCT-[PEG]-AGGCCGTGCGG-[PEG]-CCGTCACGCC-3T (DNA GGCGTGCAGTGCCTAGGCCGTGCGGCCGTCACGCCT; chemistry not fully specified) [ARC1031, minimized DNA aptamer]
Inhibition of full length hVWF binding in FACS assay, IC50 range [3]: no activity | Rabbit vWF A1 domain KD [1, 13]: No binding | Full length human vWF KD [6, 13]: No binding

GGCGTGCAGTGCCTATTCTAGGCCGTGCGG-[PEG]-CCGTCACGCC-3T (DNA GGCGTGCAGTGCCTATTCTAGGCCGTGCGGCCGTCACGCCT; chemistry not fully specified) [ARC1030, minimized DNA aptamer]
Inhibition of full length hVWF binding in FACS assay, IC50 range [3]: no activity | Rabbit vWF A1 domain KD [1, 13]: No binding | Full length human vWF KD [6, 13]: No binding

GGGACGGGGTGGGTAGACGGCGGGTATGTCCC (rGrGrGrAdCrGrGrGrGdTrGrGrGdTrArGrAdCrGrGdCrGrGrGdTrAdTrGdTdCdCdC) [SEQ ID NO 183, minimized rRdY aptamer]
IC50 [3, 10]: 26500 pM | Kd [1, 12]: 0.014 ± 0.007 µM | Kd [6, 12]: 0.01 ± 0.005 µM

B1: AMX201.B1: rRfY aptamer clone (nucleic acid)
chain: rGrGrArGfCrGfCrAfCfUfCrArGfCfCrAfCrArGrArGfCfCfCfUrGrArGfUrGfUrAfUrGrAfUfCrGfCfCfUrArGrAfUfCfUrAfUfCrGrAfUrGfCfUfUfUfUfUfCrGrAfCfCfUfCfUfCfUrGfCfUrArGfC
Inhibition of full length hVWF binding in FACS assay, IC50 range [3]: no activity | ≦200 nM aptamer gives >90% blocking in BIPA at 6 minutes [4]: yes | Kd [2, 14]: 0.019 µM

B2: AMX237.G7: DNA SELEX 2 aptamer clone (nucleic acid)
DNA: CTACCTACGATCTGACTAGCTTGGTAGCGACTTTGTGGAGCTGCGGTTTGGTCGACGTCAGCTTACTCTCATGTAGTTCC
modifications: DNA, backbone not given here
notes: DNA SELEX 2 aptamer clone
IC50 [3, 10]: 6500 pM | Screen Rabbit/No Protein [7]: 2.54 | Screen- Human/No Protein [8]: 2.68 | IC50 [5, 15]: 12.3 nM

B3: AMX236.A12: DNA SELEX 2 aptamer clone (nucleic acid)
chain: CTACCTACGATCTGACTAGCTTGGTAGCGACTCTGTGGAGCTGCGGTTTGGTCGACGTCAGCTTACTCTCATGTAGTTCC
modifications: DNA, backbone not given here
notes: DNA SELEX 2 aptamer clone
IC50 [3, 10]: 10700 pM | Screen Rabbit/No Protein [7]: 2.41 | Screen- Human/No Protein [8]: 2.64 | IC50 [5, 15]: 14.5 nM

B4: AMX201.H3: rRfY aptamer clone (nucleic acid)
chain: rGrGrArGfCrGfCrAfCfUfCrArGfCfCrAfCfUrArAfCrGrGfUfUrGrAfUfCfUfCrArGrGrAfCfUrArArAfUrArGfUfCrArAfCrArArGrGrAfUrGfCrGfUfUfUfCrGrAfCfCfUfCfUfCfUrGfCfUrArGfC
Screen- Human/No Protein [9]: 1.88 | Inhibition of full length hVWF binding in FACS assay, IC50 range [3]: no activity | Screen- Rabbit/No Protein ([7]; rRfY aptamers, 100 nM rabbit vWF A1 domain, ratio of fraction bound with target to without): 1.89 | ≦200 nM aptamer gives >90% blocking in BIPA at 6 minutes [4]: yes | Kd [2, 14]: 0.09 µM

Reference: US7998940B2, “Aptamers to von Willebrand factor and their use as thrombotic disease therapeutics” (Archemix Corp., priority 2004, dated 2011)
